The test system of data set [1] is Vero. The data set is described as follows: Cytotoxicity against African green monkey Vero cells at 40 to 100 uM compound in water by trypan blue exclusion assay. It is filed as cell-based. To be noted: chlorocebus sabaeus.
Data set [2] has as its system Human alphaherpesvirus 1. Briefly: Antiviral activity against HSV-1 infected in African green monkey Vero cells at 10 to 100 uM by plaque reduction assay. It is filed as functional, organism-based. Background: Plaques are areas of infected cells; plaque reduction assays count them against a control.
The test system of data set [3] is Vero. Briefly: Cytotoxicity against African green monkey Vero cells at 1 to 100 uM compound in DMSO by trypan blue exclusion assay. It is filed as cell-based. The following applies: chlorocebus sabaeus.
In data set [4] the test system is Human alphaherpesvirus 1. The data set is described as follows: Antiviral activity against HSV-1 infected in African green monkey Vero cells assessed as reduction in plaque formation at 10 to 100 uM by inverted microscopy. It is filed as functional, organism-based.

Each structure is given as a SMILES string. The source made the active and inactive calls. The calls are words filed in the database; no cut-off is given here.

`CC1N=C2CC(C)(C)CC(=O)C2C1=O` (stereo not given): the Activity result in the data set on Vero [1] and in the data set on Vero [3] was “Non-toxic” in each case. Besides, the inhibition entry with Human alphaherpesvirus 1 [2] was “Dose-dependent effect”.
On to `CC1CC(=O)C2C(=O)C(C)N=C2C1` (stereo not given), for which the Activity entry with Vero [1] and in the data set on Vero [3] was “Non-toxic” in each case. The inhibition entry with Human alphaherpesvirus 1 [2] was “Dose-dependent effect”. Besides, the result in the data set with Human alphaherpesvirus 1 [4] was Active.
As for `CC1N=C2CCCC(=O)C2C1=O` (stereo not given), the Activity result in the data set on Vero [1] and in the data set with Vero [3] was “Non-toxic” in each case. The inhibition entry with Human alphaherpesvirus 1 [2] is “Dose-dependent effect”.

Source of the values: ChEMBL document CHEMBL3217714, “Synthesis and anti HSV-1 evaluation of novel indole-3,4-diones” (Medchemcomm, 2011).
